From US10407467B2, “Polymyxin derivatives and their use in combination therapy together with different antibiotics” (priority 2013, dated 2019)
Counter-ions that a name gives are not always drawn. Bridge positions count the residues as written; N and C are the ends. Square brackets hold non-standard residues; d marks the D form. Peptide text beside a SMILES is read from it. * marks the point of attachment. ξ: configuration not given here. Cyclohexylacetyl = O=C(CC1CCCCC1)*; Thr(3ξ) = CC(O)[C@H](N)C(=O)O; Octanoyl = CCCCCCCC(=O)*; Dab = NCC[C@H](N)C(=O)O

Tests used:
Experiment in all cases: MIC, compound in combination with a second agent (broth microdilution)
Assay type in all cases: cell-based
Acinetobacter baumannii = conditions: 1:1 (wt:wt) combination with Rifampicin
Outline: (§1)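 Equal-mass combos (compound in TFA or sulphate salt form plus second agent); direct colony suspension, 0.5 McFarland; duplicate wells; MIC expressed as summed concentration of both drugs.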

Escherichia coli = conditions: 1:1 (wt:wt) combination with Rifampicin
Outline: as §1

Klebsiella pneumoniae = conditions: for MIC K. pneumoniae ATCC 4352: strain ATCC 4352
Outline: as §1

Pseudomonas aeruginosa = conditions: 1:1 (wt:wt) combination with Rifampicin
Outline: as §1

[1] = MIC = total drug concentration, strain ATCC BAA-747
[2] = MIC = total drug concentration, strain CCUG57249
[3] = MIC = total drug concentration, strain NCTC 13423
[4] = MIC = total drug concentration, strain NCTC 13424
[5] = MIC = total drug concentration, strain ATCC25922
[6] = MIC = total drug concentration, strain NCTC9001
[7] = 1:1 (wt:wt) combination with Rifampicin, MIC = total drug concentration
[8] = 1:1 (wt:wt) combination with Rifampicin, MIC = total drug concentration, strain ATCC-BAA-2146
[9] = 1:1 (wt:wt) combination with Rifampicin, MIC = total drug concentration, strain CCUG-59348
[10] = MIC = total drug concentration, strain ATCC 27853
[11] = MIC = total drug concentration, strain ATCC CRM-9027
[12] = MIC = total drug concentration, strain ATCC-47
[13] = MIC = total drug concentration, strain CCUG 59626
[14] = MIC is total drug concentration
[15] = 1:1 (wt:wt) combination with Rifampicin, MIC is total drug concentration
[16] = Ratio of Compound to Rifampicin 1:1, total drug concentration
[17] = Ratio of Compound to Rifampicin 1:3, total drug concentration
[18] = Ratio of Compound to Rifampicin 3:1, total drug concentration

Molecule | MIC A. baumannii ATCC BAA-747 (Acinetobacter baumannii; [1]) [micrograms/mL] | MIC A. baumannii CCUG57249 (Acinetobacter baumannii; [2]) [micrograms/mL] | MIC A. baumannii NCTC 13423 (Acinetobacter baumannii; [3]) [micrograms/mL] | MIC A. baumannii NCTC 13424 (Acinetobacter baumannii; [4]) [micrograms/mL] | MIC E. coli ATCC25922 (Escherichia coli; [5]) [micrograms/mL] | MIC E. coli NCTC9001 (Escherichia coli; [6]) [micrograms/mL] | MIC K. pneumoniae ATCC 4352 (Klebsiella pneumoniae; [7]) [micrograms/mL] | MIC K. pneumoniae ATCC-BAA-2146 (Klebsiella pneumoniae; [8]) [micrograms/mL] | MIC K. pneumoniae CCUG-59348 (Klebsiella pneumoniae; [9]) [micrograms/mL] | MIC P. aeruginosa ATCC 27853 (Pseudomonas aeruginosa; [10]) [micrograms/mL] | MIC P. aeruginosa ATCC CRM-9027 (Pseudomonas aeruginosa; [11]) [micrograms/mL] | MIC P. aeruginosa ATCC-47 (Pseudomonas aeruginosa; [12]) [micrograms/mL] | MIC P. aeruginosa CCUG 59626 (Pseudomonas aeruginosa; [13]) [micrograms/mL] | also measured
CCCCCCCC(=O)N[C@H](C(=O)N[C@H](CO)C(=O)N[C@H]1CCNC(=O)[C@H](C(C)O)NC(=O)[C@H](CCN)NC(=O)[C@H](CCN)NC(=O)[C@H](CC(C)C)NC(=O)[C@@H](Cc2ccccc2)NC(=O)[C@H](CCN)NC1=O)C(C)O (stereo partly drawn) [Example C1, NAB-739 TFA salt, reference compound] (Octanoyl-[Thr(3ξ)][dS][Dab][Dab][dF]L[Dab][Dab][Thr(3ξ)]; lactam 3-C) | 0.5 | 0.5 | 0.5 | 0.5 | 0.5 | 1 | 0.5 | 2 | 4 | 2 | 2 | 4 | 2 | –
CC(C)C[C@@H]1NC(=O)[C@@H](Cc2ccccc2)NC(=O)[C@H](CCN)NC(=O)[C@@H](NC(=O)[C@H](CCN)NC(=O)[C@@H](NC(=O)CC2CCCCC2)C(C)O)CCNC(=O)[C@H](C(C)O)NC(=O)[C@H](CCN)NC(=O)[C@H](CCN)NC1=O (stereo partly drawn) [Example C4, Cyclohexyl ethanoyl polymyxin B nonapeptide, TFA salt, reference compound] (Cyclohexylacetyl-[Thr(3ξ)][Dab][Dab][Dab][dF]L[Dab][Dab][Thr(3ξ)]; lactam 3-C) | – | – | – | – | – | – | – | – | – | – | – | – | – | MIC A. baumannii ATCC BAA-747 (Acinetobacter baumannii; [14]): 0.25 micrograms/mL; MIC A. baumannii CCUG57249 (Acinetobacter baumannii; [14]): 0.25 micrograms/mL; MIC A. baumannii NCTC 13423 (Acinetobacter baumannii; [14]): 0.125 micrograms/mL; MIC A. baumannii NCTC 13424 (Acinetobacter baumannii; [14]): 0.25 micrograms/mL; MIC E. coli ATCC25922 (Escherichia coli; [14]): 0.25 micrograms/mL; MIC E. coli NCTC9001 (Escherichia coli; [14]): 0.5 micrograms/mL; MIC K. pneumoniae ATCC-BAA-2146 (Klebsiella pneumoniae; [15]): 1 micrograms/mL; MIC K. pneumoniae CCUG-59348 (Klebsiella pneumoniae; [15]): 2 micrograms/mL; MIC K. pneumoniae NCTC 13438 (Klebsiella pneumoniae; [15]): 0.5 micrograms/mL; MIC P. aeruginosa ATCC 27853 (Pseudomonas aeruginosa; [14]): 0.5 micrograms/mL; MIC P. aeruginosa ATCC CRM-9027 (Pseudomonas aeruginosa; [14]): 0.5 micrograms/mL; MIC P. aeruginosa ATCC-47 (Pseudomonas aeruginosa; [14]): 1 micrograms/mL; MIC P. aeruginosa CCUG 59626 (Pseudomonas aeruginosa; [14]): 0.25 micrograms/mL
Polymyxin B nonapeptide [PMBN, reference compound] | 0.25 | 1 | 0.5 | 0.5 | 0.5 | 1 | 0.25 | 1 | 4 | 0.125 | 0.125 | 0.25 | 0.125 | MIC K. pneumoniae ATCC-BAA-2146 (Klebsiella pneumoniae; [16]): 2 micrograms/mL; MIC K. pneumoniae CCUG-59348 (Klebsiella pneumoniae; [16]): 4 micrograms/mL; MIC K. pneumoniae NCTC 13438 (Klebsiella pneumoniae; [16]): 2 micrograms/mL; MIC K. pneumoniae ATCC-BAA-2146 (Klebsiella pneumoniae; [17]): 2 micrograms/mL; MIC K. pneumoniae CCUG-59348 (Klebsiella pneumoniae; [17]): 4 micrograms/mL; MIC K. pneumoniae NCTC 13438 (Klebsiella pneumoniae; [17]): 2 micrograms/mL; MIC K. pneumoniae ATCC-BAA-2146 (Klebsiella pneumoniae; [18]): 2 micrograms/mL; MIC K. pneumoniae CCUG-59348 (Klebsiella pneumoniae; [18]): 8 micrograms/mL; MIC K. pneumoniae NCTC 13438 (Klebsiella pneumoniae; [18]): 2 micrograms/mL
